Assay results reported in US6723716B1, “7-acylamino-3-heteroarylthio-3-cephem carboxylic acid antibiotics and prodrugs thereof” (Essential Therapeutics, Inc., priority 1999, dated 2004).

Key:
rat serum proteins = assay: Serum binding determination by ultrafiltration/HPLC; format: in vitro ADME; conditions: by HPLC
rhesus serum proteins = assay: as above; format: in vitro ADME; conditions: by HPLC
[1] = test system: S. aureus ATCC 13709 (Smith diffuse); assay: Murine lethal bacteremic peritonitis (septicemia) efficacy; format: in vivo, mice; conditions: for responders at 0.078 mg/kg: dose 0.078 mg/kg s.c. at 0 and 2 h post-challenge; for responders at 0.312 mg/kg: dose 0.312 mg/kg s.c. at 0 and 2 h post-challenge; for responders at 0.625 mg/kg: dose 0.625 mg/kg s.c. at 0 and 2 h post-challenge; for responders at 1.25 mg/kg: dose 1.25 mg/kg s.c. at 0 and 2 h post-challenge; for responders at 2.5 mg/kg: dose 2.5 mg/kg s.c. at 0 and 2 h post-challenge; for ED50: ATCC13709, mice, S. aureus ATCC 13709 i.p., s.c. at 0 and 2 h post-challenge, probit method; for responders at 0.156 mg/kg: dose 0.156 mg/kg s.c. at 0 and 2 h post-challenge
Method: 10 mice/group were injected intraperitoneally with 2.98×10^7 cfu S. aureus ATCC 13709 (Smith diffuse) and treated at 0 and 2 hrs post-challenge with serial two-fold doses of new cephalosporin antibiotic, imipenem and vancomycin subcutaneously in order to determine the ED50. Male Swiss-Webster mice weighing originally 24.2-26.1 g were obtained from Charles Rivers Labs, Hollister, Calif. Mice were housed 10 per cage and given free access to water and mouse chow.
Staphylococcus aureus ATCC 13709 (Smith diffuse) was grown overnight at 37° C. in Brain-heart Infusion broth (BHIB). The following morning, it was subcultured to fresh BHIB and incubated for 4-5 h at 37° C. The log-phase growth cells were washed once with physiological saline and adjusted to the desired concentration by correlation of absorbency at OD 600 nm with predetermined plate counts (NCCLS, 1994). The cell suspension was mixed with an equal volume of sterile 14% hog-gastric mucin (2). Inoculum was kept in an ice bath until used (<1 h).
Mice were challenged via an injection of 0.5 mL bacterial suspension intraperitoneally. The bacterial challenge was 2.98×10^7 cfu/mouse.
Imipenem (Primaxin IV; Lot 7294A), vancomycin (Vancocin; Lot 8MU60W), and new cephalosporin antibiotic were prepared by serial two-fold dilutions to concentrations of 0.078-0.005 mg/mL, 1.2-0.075 mg/mL, 0.3-0.02 mg/mL, 0.3-0.02 mg/mL and 0.3-0.02 mg/mL respectively in sterile water (1). All antibiotics were administered subcutaneously in 0.1 mL volumes at 0 and 2 hours post-challenge. Concentrations of all compounds are based on the weight of the bioactive ingredients.
The 50% effective dose (ED50) was calculated by the probit method (3) utilizing a program entitled Probit (Nycomed-Salutar).

[2] = Staphylococcus aureus, ATCC13709, sc, read-out: Efficacy in murine septicemia % survival
[3] = dose 5 mg/kg s.c. at 0 and 2 h post-challenge

Row | Compound | Serum Binding rat (% of compound bound to serum) (rat serum proteins) [%] | Serum Binding rhesus (% of compound bound to serum) (rhesus serum proteins) [%] | responders at 0.078 mg/kg [1, 2] [%] | responders at 0.165 mg/kg ([1]; Staphylococcus aureus, ATCC13709, sc, dose 0.165 mg/kg s.c. at 0 and 2 h post-challenge, read-out: Efficacy in murine septicemia % survival) [%] | responders at 0.312 mg/kg [1, 2] [%] | responders at 0.625 mg/kg [1, 2] [%] | responders at 1.25 mg/kg [1, 2] [%] | responders at 2.5 mg/kg [1, 2] [%] | ED50 ([1]; Staphylococcus aureus) [mg/kg] | Efficacy in murine septicemia % survival [1, 3] | responders at 0.12 mg/kg ([1]; Staphylococcus aureus, ATCC13709, sc, dose 0.12 mg/kg s.c. at 0 and 2 h post-challenge, read-out: Efficacy in murine septicemia % survival) [%] | responders at 0.25 mg/kg ([1]; Staphylococcus aureus, ATCC13709, sc, dose 0.25 mg/kg s.c. at 0 and 2 h post-challenge, read-out: Efficacy in murine septicemia % survival) [%] | responders at 0.5 mg/kg ([1]; Staphylococcus aureus, ATCC13709, sc, dose 0.5 mg/kg s.c. at 0 and 2 h post-challenge, read-out: Efficacy in murine septicemia % survival) [%] | responders at 1 mg/kg ([1]; Staphylococcus aureus, ATCC13709, sc, dose 1.0 mg/kg s.c. at 0 and 2 h post-challenge, read-out: Efficacy in murine septicemia % survival) [%] | responders at 2 mg/kg ([1]; Staphylococcus aureus, ATCC13709, sc, dose 2.0 mg/kg s.c. at 0 and 2 h post-challenge, read-out: Efficacy in murine septicemia % survival) [%] | responders at 0.156 mg/kg [1, 2] [%] | Efficacy in murine septicemia % survival ([1]; dose 10 mg/kg s.c. at 0 and 2 h post-challenge)
1 | NCCSCc1nc(N)sc1SC1=C(C(=O)O)N2C(=O)[C@@H](NC(=O)/C(=N\O)c3nc(N)sc3Cl)[C@H]2SC1 [Cmpd 3, (7R)-7-[(Z)-2-(2-amino-5-chlorothiazol-4-yl)-2-(hydroxyimino)acetamido]-3-[4-(2-aminoethylthiomethyl)-2-amino-1,3-thiazol-5-ylthio]-3-cephem-4-carboxylic acid] | 56 | 93 | 30 | 40 | 50 | 90 | 90 | 100 | 0.39 |  |  |  |  |  |  |  | 
2 | NCCSCc1ncccc1SC1=C(C(=O)O)N2C(=O)[C@@H](NC(=O)/C(=N\O)c3nc(N)sc3Cl)[C@H]2SC1 [Cmpd 13, (7R)-7-[(Z)-2-(2-amino-5-chlorothiazol-4-yl)-2-(hydroxyimino)acetamido]-3-[2-(2-aminoethylthiomethyl)pyrid-3-ylthio]-3-cephem-4-carboxylic acid] | 85 |  |  |  |  | 100 | 100 | 100 |  | 5/100% |  |  |  |  |  |  | 
3 | N=C(N)NCCSCc1ncccc1SC1=C(C(=O)O)N2C(=O)[C@@H](NC(=O)/C(=N\O)c3nsc(N)n3)[C@H]2SC1 [Cmpd 14, (7R)-7-[(Z)-2-(5-amino-1,2,4-thiadiazol-3-yl)-2-(hydroxyimino)acetamido]-3-[2-(2-guanidinoethylthiomethyl)pyrid-3-ylthio]-3-cephem-4-carboxylic acid] |  |  |  |  | 90 | 100 | 100 | 100 | < 0.31 | 5/100% |  |  |  |  |  |  | 
4 | NCCSCc1ncccc1SC1=C(C(=O)O)N2C(=O)[C@@H](NC(=O)/C(=N\O)c3nsc(N)n3)[C@H]2SC1 [Cmpd 17, (7R)-7-[(Z)-2-(5-amino-1,2,4-thiadiazol-3-yl)-2-(hydroxyimino)acetamido]-3-[2-(2-aminoethylthiomethyl)pyrid-3-ylthio]-3-cephem-4-carboxylic acid] | 74 | 81 |  |  |  |  |  |  | 0.39 |  | 10 | 20 | 50 | 100 | 100 |  | 
5 | NCCSCc1cnccc1SC1=C(C(=O)O)N2C(=O)[C@@H](NC(=O)/C(=N\O)c3nsc(N)n3)[C@H]2SC1 [Cmpd 18, (7R)-7-[(Z)-2-(5-amino-1,2,4-thiadiazol-3-yl)-2-(hydroxyimino)acetamido]-3-[3-(2-aminoethylthiomethyl)pyrid-4-ylthio]-3-cephem-4-carboxylic acid] | 55 | 67 |  |  | 30 | 60 | 100 | 100 | 0.46 | 5/100% |  |  |  |  |  |  | 
6 | NCCSCc1cnccc1SC1=C(C(=O)O)N2C(=O)C(NC(=O)/C(=N\O)c3csc(N)n3)C2SC1 (centres unmarked) [Cmpd 19] | 76 | 83 | 20 |  | 20 | 80 | 100 |  |  |  |  |  |  |  |  | 20 | 
7 | NCCSCc1cnccc1SC1=C(C(=O)O)N2C(=O)[C@@H](NC(=O)/C(=N\O)c3nc(N)sc3Cl)[C@H]2SC1 [Cmpd 20, (7R)-7-[(Z)-2-(2-amino-5-chlorothiazol-4-yl)-2-(hydroxyimino)acetamido]-3-[3-(2-aminoethylthiomethyl)pyrid-4-ylthio]-3-cephem-4-carboxylic acid] | 71 | 77 |  |  | 10 | 30 | 58 | 80 | 1 |  |  |  |  |  |  | 20 | 
8 | NCCSCc1ccncc1SC1=C(C(=O)O)N2C(=O)[C@@H](NC(=O)/C(=N\O)c3nc(N)sc3Cl)[C@H]2SC1 [Cmpd 21, (7R)-7-[(Z)-2-(2-amino-5-chlorothiazol-4-yl)-2-(hydroxyimino)acetamido]-3-[4-(2-aminoethylthiomethyl)pyrid-3-ylthio]-3-cephem-4-carboxylic acid] | 97 | 97 |  |  | 0 | 0 | 70 | 80 | 0.79 |  |  |  |  |  |  |  | 
9 | NCCSCc1ncsc1SC1=C(C(=O)O)N2C(=O)[C@@H](NC(=O)/C(=N\O)c3cccc(N)n3)[C@H]2SC1 [Cmpd 23, (7R)-7-[(Z)-2-(2-aminopyrid-6-yl)-2-(hydroxyimino)acetamido]-3-[4-(2-aminoethylthiomethyl)-1,3-thiazol-5-ylthio]-3-cephem-4-carboxylic acid] | 77 | 93 |  |  | 40 |  | 100 | 100 | 0.39 | 5/100% |  |  |  |  |  |  | 
10 | NCCSCc1cnccc1SC1=C(C(=O)O)N2C(=O)[C@@H](NC(=O)/C(=N\O)c3cccc(N)n3)[C@H]2SC1 [Cmpd 24, (7R)-7-[(Z)-2-(2-aminopyrid-6-yl)-2-(hydroxyimino)acetamido]-3-[3-(2-aminoethylthiomethyl)pyrid-4-ylthio]-3-cephem-4-carboxylic acid] | 52 |  |  |  |  | 30 | 90 | 100 | 0.76 | 5/100% |  |  |  |  |  |  | 10/100%
11 | N=C(N)NCCSCc1cnccc1SC1=C(C(=O)O)N2C(=O)[C@@H](NC(=O)/C(=N\O)c3nsc(N)n3)[C@H]2SC1 [Cmpd 25, (7R)-7-[(Z)-2-(5-amino-1,2,4-thiadiazol-3-yl)-2-(hydroxyimino)acetamido]-3-[3-(2-guanidinoethylthiomethyl)pyrid-4-ylthio]-3-cephem-4-carboxylic acid] | 35 | 55 |  |  | 80 | 100 | 100 | 100 | < 0.31 | 5/100% |  |  |  |  |  |  | 
